Experimental data from paper PMC10257182, “Discovery of senolytics using machine learning” (Nature Communications, 2023).
Where “and” joins values, the source holds several entries; their conditions need not be identical. Equal values may be shown once.

Key:
Type in all cases: cell-based, human
[1] = tested on: control IMR90 ER:STOP cells; experiment: Cell survival assay using crystal violet staining, OIS, control cells; design: % Cell Survival: concentration or dose not given beside the values
Experimental: (§1) Equal numbers of control and senescent cells were plated at high density on multiwell plates just before senolytic treatment addition. After treatment, cells were fixed on 0.5% glutaraldehyde (Sigma) and then dried at RT overnight. Then, wells were stained with crystal violet solution for 3 h, washed and dried. Once they were completely dry, the plates were scanned for records. Quantification was performed extracting the staining with 1% acetic acid and measuring the final solution by absorbance at 595 nm.

[2] = tested on: Na+/K+ ATPase pump (intracellular K+) in senescent IMR90 ER:RAS cells; experiment: Intracellular K+ determination with Asante staining, OIS; conditions: FIG 4E, ER:RAS cells
Experimental: (§2) Cells were cultured for control and senescent phenotype and then treated with the senolytics oleandrin, ouabain and periplocin at 10 nM for 72 h. Asante (Asante Potassium Green-2 AM, abcam ab142806) was added to the culture 30 min before fixation, following manufacturer instructions. DAPI staining was done before image acquisition on Nikon TI2 microscope (20x). Image analysis was performed using ImageJ 1.53k for setting intensity threshold and measuring mean intensity.

[3] = tested on: A549 cells treated with 100 μM etoposide; experiment: Cell survival assay using crystal violet staining, TIS, senescent cells; conditions: Etoposide-treated (senescent) cells; Control DMSO = 100; single replicates (SUP FIG 9E)
Experimental: as §1, with “nm. […]” for “nm.”
(§3) cells per condition is indicated. (d) Cell survival assay measuring the senolytic effect in lung cancer senescent cells. The panels show a representative crystal violet staining of tissue culture dishes of confluent A549 cells treated with 100 μM etoposide and control A549 cells, all treated with 10 nM oleandrin, ouabain and periplocin, and DMSO as vehicle control for 72 hours as indicated. (e) Graph representing the cell survival by quantification of the crystal violet staining of the experiment described in (d), as described in Methods. Data represented as individual datapoints, and bars and error bars representing the mean ± SEM of 14 independent experiments. Statistical analysis was performed using a one-way ANOVA (Tukey’s test) for multiple comparisons. […]
(§4) Scale bars represent 100 μm. ns = not significant, * = p < 0.05, ** = p < 0.01, *** = p < 0.001, **** = p < 0.0001. Source data are provided as a Source Data file.

[4] = tested on: IMR90 cells at passage 27 (replicative senescence); experiment: Cell survival assay using crystal violet staining, replicative senescence; conditions: FIG 4C; Replicative Senescence (RS) cells; individual replicate values, Control DMSO = 100
Source text: IMR90 (CCL-186) human foetal lung fibroblasts and A549 (CCL-185) human lung adenocarcinoma cells were obtained from the American Type Culture Collection (ATCC, Manassas, VA). The cell lines were confirmed to be mycoplasma negative (Lonza MycoAlert, cat #LT07-118). IMR90 ER:RAS is a derivative of IMR90 cells expressing a switchable version of oncogenic H-Ras[84]. IMR90 ER:RAS and A549 cells were maintained in Dulbecco’s Modified Eagle Medium (DMEM, ThermoFisher) supplemented with foetal bovine serum (10%), L-glutamine (2 mM, ThermoFisher), and antibiotic-antimycotic solution (1%, ThermoFisher) and incubated under standard tissue culture conditions (37 °C and 5% CO2). For induction of the senescent phenotype, IMR90-ER:RAS cells were cultured in hydroxytamoxifen (4-OHT) (Sigma) added media at 100 nM final concentration. IMR90 were kept in culture for over 27 passages for replicative senescence. Cells were tested for mycoplasma on a regular basis.
as §1

[5] = tested on: A549 cells treated with 100 μM etoposide; experiment: Cell survival assay using crystal violet staining, TIS, senescent cells; conditions: fraction of Control DMSO = 1, n 15
[6] = tested on: Na+/K+ ATPase pump (intracellular K+) in IMR90 cells at passage 27; experiment: Intracellular K+ determination with Asante staining, replicative senescence; conditions: Replicative Senescence cells
Experimental: as §2

control A549 cells = experiment: Cell survival assay using crystal violet staining, TIS, control cells; conditions: Control (no etoposide) cells; Control DMSO = 100; single replicates (SUP FIG 9E)
Experimental: as §1, with “nm. […]” for “nm.”
as §3, §4

[7] = tested on: caspase 3/7 activity in senescent IMR90 ER:RAS cells; experiment: Caspase 3/7 activity assay; design: Caspase 3/7 activity time course (SUP FIG 9F) / Caspase 3/7 activity time course (SUP FIG 9F exp not shown): unit not given here; conditions: for Caspase 3/7 activity time course (SUP FIG 9F) / Caspase 3/7 activity time course (SUP FIG 9F exp not shown): ER:RAS cells; for Caspase 3/7 activity time course (SUP FIG 9F exp not shown): second experiment, data not shown
Experimental: IMR90 ER:STOP and IMR90 ER:RAS cells were cultured with 100 nM 4-OHT for 5 days. Cell were then plated in a multiwell plate at high density. Once cells were attached, Caspase 3/7 probe (C10423 Invitrogen) and senolytic drugs, oleandrin, ouabain and periplocin at 10 nM, were added to the media and cultured for 36 h. Time lapse imaging was recorded every hour on a Leica AF6500 microscope (10x). ImageJ 1.53k was used for positive cell counting.

[8] = tested on: proliferating IMR90 cells; experiment: BrdU incorporation proliferation assay
Experimental: 5-bromo-2′-deoxyuridine (BrdU) incorporation was used to measure the number of cells actively replicating DNA. Cells were incubated with 10 μM BrdU (85811, Sigma) for 18 h. After that, cells were fixed with 4% Paraformaldehyde, permeabilised, blocked and then stained for immunofluorescence using BrdU primary antibody (555627 BD Pharmigen), Alexa fluor secondary for detection, and DAPI staining for cell counting. Acquisition was done with a Nikon TI2 microscope and analysis was performed with ImageJ for cell counting.

`C[C@@H]1O[C@@H](O[C@H]2C[C@@H](O)[C@]3(CO)[C@H]4[C@H](O)C[C@]5(C)[C@@H](C6=CC(=O)OC6)CC[C@]5(O)[C@@H]4CC[C@]3(O)C2)[C@H](O)[C@H](O)[C@H]1O` [Ouabain, ouabain, reference compound] was tested, and the “cytotoxic activity (crystal violet), in words” value [1] was “no cytotoxic activity”, the “% Cell Survival” value ([1]; FIG 4B, ER:STOP cells, individual replicate values, ER:STOP DMSO = 100) was 100.7% and 91.1% and 79.5% and 88.8% and 108.2% and 92.7% and 95.3% and 93.9% and 97.9% and 80.1% and 99.8% and 95% and the “Mean (cell survival, Tukey test details)” value ([1]; FIG 4B, ER:STOP cells, mean of n=12 as fraction of STOP DMSO = 1) was 0.9358. The “Asante Mean intensity” value ([2]; individual replicate values) was 73.6 and 91 and 73.5 and 72.9 and 82 and 66.9, the “Mean (Asante Mean intensity, Tukey test details)” value ([2]; mean of n=7) was 76.21 and the “% Cell Survival” value [3] was 83.2% and 99.9% and 99.3% and 62.7% and 92.6% and 102.5% and 88.1% and 123.1% and 123.9% and 68.2% and 105.6% and 95.4% and 114.5% and 91.7%. The “% Cell Survival” value [4] was 94.8% and 97.2% and 95.8% and 90.6% and 106.9% and 98.6% and 108.7% and 109.7% and 103.6% and 106.2% and 99.7%, the “Cell survival, mean (Test details, Mean 2)” value [5] was 0.9058 and the “Asante Mean intensity” value ([6]; individual replicate values) was 151.8 and 154.5 and 152.7 and 153 and 150.8 and 153.1. For the same compound, the “Asante Mean intensity, group mean (Test details, Mean 2)” value ([6]; mean of n=6) was 152.7, the “% Cell Survival” value (control A549 cells) was 87.7% and 109.8% and 97.7% and 103.7% and 127.7% and 98.4% and 119.9% and 122.1% and 126.3% and 124.6% and 125% and 96.4% and the “Caspase 3/7 activity time course (SUP FIG 9F)” value ([7]; 01:00:00 hours) was 1.9. For the same compound, the “Caspase 3/7 activity time course (SUP FIG 9F exp not shown)” value ([7]; 01:00:00 hours) was 0.1, the “Caspase 3/7 activity time course (SUP FIG 9F)” value ([7]; 05:00:00 hours) was 1.9 and the “Caspase 3/7 activity time course (SUP FIG 9F exp not shown)” value ([7]; 05:00:00 hours) was 0.95. For the same compound, the “Caspase 3/7 activity time course (SUP FIG 9F)” value ([7]; 10:00:00 hours) was 2.6, the “Caspase 3/7 activity time course (SUP FIG 9F exp not shown)” value ([7]; 10:00:00 hours) was 1.45 and the “Caspase 3/7 activity time course (SUP FIG 9F)” value ([7]; 15:00:00 hours) was 2.6. For the same compound, the “Caspase 3/7 activity time course (SUP FIG 9F exp not shown)” value ([7]; 15:00:00 hours) was 1.55, the “Caspase 3/7 activity time course (SUP FIG 9F)” value ([7]; 20:00:00 hours) was 3 and the “Caspase 3/7 activity time course (SUP FIG 9F exp not shown)” value ([7]; 20:00:00 hours) was 2.7. For the same compound, the “Caspase 3/7 activity time course (SUP FIG 9F)” value ([7]; 1 day, 1:00:00) was 4, the “Caspase 3/7 activity time course (SUP FIG 9F exp not shown)” value ([7]; 1 day, 1:00:00) was 4.6 and the “Caspase 3/7 activity time course (SUP FIG 9F)” value ([7]; 1 day, 6:00:00) was 3.9. For the same compound, the “Caspase 3/7 activity time course (SUP FIG 9F exp not shown)” value ([7]; 1 day, 6:00:00) was 7.55, the “Caspase 3/7 activity time course (SUP FIG 9F)” value ([7]; 1 day, 11:00:00) was 3.9 and the “Caspase 3/7 activity time course (SUP FIG 9F exp not shown)” value ([7]; 1 day, 11:00:00) was 8.25. For the same compound, the “Casp3/7 activity (percentage of green fluorescent cells)” value ([7]; ER:RAS, 100 nM 4OHT, 10 nM compound, 35 h) was 6.4%, the “% BrdU positive cells, mean (Test details, Mean 2)” value ([8]; IMR90 cells, n 4) was 73.84% and the “% BrdU positive cells” value ([8]; IMR90 cells, single replicates (SUP FIG 9G)) was 69.37% and 73.68% and 73.67% and 78.62%. For the same compound, the “proliferation by BrdU incorporation, in words” value ([8]; proliferating IMR90 cells, 10 nM) was “none of the cardiac glycosides induced unwanted changes in proliferation”.
